These results are taken from PubChem BioAssay (NCI).

Test systems include HCT-15 colon; NCI-H23 lung; HT29 colon; OVCAR-8 ovarian; SK-OV-3 ovarian; KM12 colon; UACC-62 melanoma; SN12C renal; HCC-2998 colon; NCI-H522 lung; A549 NSCLC; DU-145 prostate; SK-MEL-5 melanoma; NCI/ADR-RES ovarian; U251 CNS; SF-268 CNS; HS 578T breast; SF-295 CNS; SNB-75 CNS.
Holding throughout (assay): inhibition of tumour cell growth, NCI panel, 48 h

The structures appear in SMILES notation.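 Cells were grown in 96-well plates and exposed to each compound for 48 hours at five concentrations; endpoints were interpolated linearly between bracketing concentrations, or set to the highest concentration if not reached. The concentration for full growth arrest is given as TGI.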 Some results are limits rather than exact numbers.

In the case of `CCC(C#N)NCc1ccc(CNC(C#N)CC)cc1` (stereo unspecified), the TGI in the assay with HCT-15 colon, in the assay on NCI-H23 lung, with HT29 colon, in the assay with OVCAR-8 ovarian, with SK-OV-3 ovarian and in the assay on KM12 colon was over 100 µM throughout. In addition, the TGI in the assay with UACC-62 melanoma, in the assay with SN12C renal, with HCC-2998 colon, with NCI-H522 lung, in the assay on A549 NSCLC and with DU-145 prostate was over 100 µM each time. The TGI with SK-MEL-5 melanoma, with NCI/ADR-RES ovarian, in the assay on U251 CNS, in the assay with SF-268 CNS, in the assay with HS 578T breast and in the assay with SF-295 CNS was over 100 µM each time.

Turning to `CCCCCCCCCCCCCCCCC(=O)NCC(=O)NCC(=O)NC(Cc1ccccc1)C(=O)Oc1ccc([N+](=O)[O-])cc1` (stereo unspecified), the TGI in the assay with HCT-15 colon was 34.5 µM; in the assay on NCI-H23 lung, over 100 µM; in the assay on HT29 colon, 88 µM; in the assay with OVCAR-8 ovarian it was 38.7 µM; with KM12 colon it was 48.8 µM; with UACC-62 melanoma it was 40.5 µM. In addition, the TGI in the assay on SN12C renal was 34.6 µM; in the assay with HCC-2998 colon it was 37.3 µM; with SNB-75 CNS, over 100 µM; in the assay on NCI-H522 lung, 55.2 µM; in the assay on DU-145 prostate, over 100 µM; in the assay with SK-MEL-5 melanoma, 47.4 µM. Besides, the TGI in the assay on NCI/ADR-RES ovarian is 42.9 µM; with U251 CNS, 43.3 µM; in the assay on SF-268 CNS, 50.4 µM; in the assay on HS 578T breast, over 100 µM; with SF-295 CNS, 40.4 µM.

`CCOC(=O)c1ccc(OCc2nc3cc(C(F)(F)F)ccc3nc2-c2ccccc2)cc1`: the TGI in the assay on HCT-15 colon, in the assay with NCI-H23 lung, in the assay with HT29 colon, in the assay on OVCAR-8 ovarian, in the assay with KM12 colon and with UACC-62 melanoma was over 100 µM each time. Further, the TGI in the assay with SN12C renal, in the assay on HCC-2998 colon, with SNB-75 CNS, in the assay with NCI-H522 lung, in the assay with A549 NSCLC and in the assay on DU-145 prostate was over 100 µM throughout. Besides, the TGI with SK-MEL-5 melanoma, in the assay on NCI/ADR-RES ovarian, in the assay on U251 CNS, with SF-268 CNS, in the assay on HS 578T breast and with SF-295 CNS was over 100 µM in each case.

With `O=C(c1ccc(-c2ccccc2)cc1)N(Cc1cccnc1)C(=S)N(Cc1cccnc1)C(=O)c1ccc(-c2ccccc2)cc1`, the TGI in the assay with HCT-15 colon, in the assay with NCI-H23 lung, with HT29 colon, in the assay on OVCAR-8 ovarian, in the assay on SK-OV-3 ovarian and in the assay on KM12 colon was over 100 µM in each case. Further, the TGI in the assay with UACC-62 melanoma, with SN12C renal, with HCC-2998 colon, with NCI-H522 lung, in the assay on A549 NSCLC and in the assay on DU-145 prostate was over 100 µM throughout. In addition, the TGI in the assay on SK-MEL-5 melanoma, in the assay with NCI/ADR-RES ovarian, in the assay on U251 CNS, in the assay on SF-268 CNS, in the assay on HS 578T breast and in the assay with SF-295 CNS was over 100 µM throughout.

Take `Cc1c2ccccc2c(CSC(=N)N)c2ccccc12`: the TGI amounted to 1.96 µM with HCT-15 colon; 0.272 µM in the assay on NCI-H23 lung; 1.05 µM in the assay with HT29 colon; 6.43 µM with OVCAR-8 ovarian; 2.67 µM in the assay on SK-OV-3 ovarian; 0.545 µM with KM12 colon. Also, the TGI with UACC-62 melanoma was 0.408 µM; with SN12C renal, 0.903 µM; in the assay with SNB-75 CNS it was 0.445 µM; in the assay with NCI-H522 lung it was 0.196 µM; in the assay on A549 NSCLC it was 1.62 µM; in the assay on DU-145 prostate, 0.406 µM. The TGI was found to be 0.331 µM with SK-MEL-5 melanoma; 0.924 µM with NCI/ADR-RES ovarian; 0.818 µM in the assay with U251 CNS; 1.33 µM in the assay on SF-268 CNS; 0.475 µM in the assay on HS 578T breast; 2.29 µM in the assay on SF-295 CNS.

On to `Cc1nc2ccc(F)cc2c2c1CCN2c1ccccc1`, for which the TGI with HCT-15 colon was over 100 µM; in the assay with NCI-H23 lung it was 52.9 µM; with HT29 colon it was over 100 µM; in the assay on OVCAR-8 ovarian, 44.6 µM; in the assay with KM12 colon, over 100 µM; in the assay with UACC-62 melanoma it was 27.4 µM. The TGI in the assay on HCC-2998 colon was 38.2 µM; with SNB-75 CNS, 79.1 µM; with NCI-H522 lung it was 47.1 µM; in the assay with A549 NSCLC, 68 µM; in the assay with DU-145 prostate, over 100 µM; with SK-MEL-5 melanoma, 26.8 µM. Moreover, the TGI was 68 µM with NCI/ADR-RES ovarian; 78.9 µM in the assay with U251 CNS; over 100 µM in the assay on SF-268 CNS; over 100 µM with HS 578T breast; 34.4 µM with SF-295 CNS.

Consider `O=C1CC2(CCN(CC3COc4ccccc4O3)CC2)C(=O)N1N1CCCCCC1` (stereo unspecified), for which the TGI in the assay with HCT-15 colon is over 100 µM; with NCI-H23 lung, over 100 µM; with HT29 colon, 47.6 µM; in the assay with OVCAR-8 ovarian it was over 100 µM; in the assay on SK-OV-3 ovarian, over 100 µM; with UACC-62 melanoma it was over 100 µM. For the same molecule, the TGI with SN12C renal, in the assay with SNB-75 CNS, in the assay on NCI-H522 lung, in the assay with A549 NSCLC, with DU-145 prostate and in the assay with SK-MEL-5 melanoma was over 100 µM in each case. Also, the TGI in the assay with NCI/ADR-RES ovarian, in the assay with U251 CNS, in the assay on SF-268 CNS, in the assay with HS 578T breast and with SF-295 CNS was over 100 µM throughout.

On to `O=C1CCN=C(NC(=O)C(F)(F)F)N1CCc1c[nH]c2ccccc12`, for which the TGI in the assay with HCT-15 colon, in the assay with NCI-H23 lung, in the assay with HT29 colon, in the assay on OVCAR-8 ovarian, in the assay with SK-OV-3 ovarian and in the assay with KM12 colon was over 100 µM in each case. The TGI in the assay on UACC-62 melanoma, in the assay with SN12C renal, with HCC-2998 colon, with NCI-H522 lung, in the assay with A549 NSCLC and in the assay on DU-145 prostate was over 100 µM each time. In addition, the TGI in the assay on SK-MEL-5 melanoma, in the assay on NCI/ADR-RES ovarian, in the assay with U251 CNS, in the assay with SF-268 CNS, with HS 578T breast and in the assay on SF-295 CNS was over 100 µM in each case.
